Experimental data reported in patent US20070254917A1, “INTRACELLULAR RECEPTOR MODULATOR COMPOUNDS AND METHODS” (priority 2004, published 2007).

Each compound was assayed against T1, human mineralocorticoid Receptor-α (MRα) (Homo sapiens, UniProt P08235) (assay: Mineralocorticoid binding assay ([3H]aldosterone displacement, MR lysate)).
T1 construct: made in house; host or cells: Sf21 insect cells (baculovirus), as described for GR
T1 sequence (P08235 1-984): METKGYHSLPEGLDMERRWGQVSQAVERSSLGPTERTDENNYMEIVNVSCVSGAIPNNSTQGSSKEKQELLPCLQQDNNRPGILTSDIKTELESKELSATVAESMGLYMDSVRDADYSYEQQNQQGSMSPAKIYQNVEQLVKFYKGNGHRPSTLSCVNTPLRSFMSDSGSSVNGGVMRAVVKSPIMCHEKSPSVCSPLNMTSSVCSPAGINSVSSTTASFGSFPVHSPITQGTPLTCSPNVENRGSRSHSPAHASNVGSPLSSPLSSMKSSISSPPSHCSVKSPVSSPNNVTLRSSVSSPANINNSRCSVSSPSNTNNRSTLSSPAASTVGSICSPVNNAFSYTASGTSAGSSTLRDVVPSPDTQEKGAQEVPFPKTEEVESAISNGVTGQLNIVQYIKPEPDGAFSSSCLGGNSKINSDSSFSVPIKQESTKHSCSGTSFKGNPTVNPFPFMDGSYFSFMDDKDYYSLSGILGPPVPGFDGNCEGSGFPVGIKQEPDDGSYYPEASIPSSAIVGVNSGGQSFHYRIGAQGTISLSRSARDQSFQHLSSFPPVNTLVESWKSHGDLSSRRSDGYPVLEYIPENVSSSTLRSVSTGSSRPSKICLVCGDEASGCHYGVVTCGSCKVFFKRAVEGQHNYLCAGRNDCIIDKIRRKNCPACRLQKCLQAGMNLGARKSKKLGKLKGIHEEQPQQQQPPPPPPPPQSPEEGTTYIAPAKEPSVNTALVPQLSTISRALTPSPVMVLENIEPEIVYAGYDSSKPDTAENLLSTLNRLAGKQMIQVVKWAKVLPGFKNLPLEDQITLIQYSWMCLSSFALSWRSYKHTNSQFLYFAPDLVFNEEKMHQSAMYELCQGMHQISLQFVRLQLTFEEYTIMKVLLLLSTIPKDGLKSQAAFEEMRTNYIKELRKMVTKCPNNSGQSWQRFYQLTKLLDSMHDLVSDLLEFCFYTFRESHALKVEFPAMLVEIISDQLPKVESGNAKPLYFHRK
Experimental: Human mineralocorticoid receptor protein was prepared from a baculovirus expression plasmid comprising cDNA encoding human mineralocorticoid Receptor-α (MRα), as described for GR (Example 158).
Binding assay samples were prepared in separate mini-tubes in a 96-well format at 4° C. Each binding assay sample was prepared in a volume of 250 μl of MR-Assay Buffer (10% glycerol, 10 mM sodium phosphate, 10 mM potassium fluoride, 20 mM sodium molybdate, 0.25 mM CHAPS, 2 mM DTT, (adjusted to pH 7.35)) containing 5-10 μg of MR lysate; 2-4 nM of [^3H]aldosterone; unlabeled aldosterone; and a test compound. Each test compound was assayed at several different concentrations, ranging from 0 to 10^−5 M and each was tested in the presence and in the absence of several different concentrations of unlabeled aldosterone. Each concentration of each test compound was assayed in triplicate. The assay samples were incubated for 16 hours at 4° C.
After incubation, protein was precipitated with hydroxylapatite, collected, and counted as described in Example 158 for GR. Specific binding for a particular sample was calculated using the same equation as was used for GR: (Sample CPM)−(Average Non-specific CPM) Average Non-specific CPM was defined as the amount of radioactivity from samples comprising an excess (i.e. 1000 nM) of unlabeled aldosterone. […] Ki values were determined using the Cheng-Prusoff equation using a previously determined Kd value for aldosterone: Ki=IC50/(1+[L]/Kd) [L]=concentration of labeled aldosterone Kd=dissociation constant of labeled aldosterone

Row | SMILES | Ki [nM]
1 | Cc1cc(-c2csc(C#N)c2)c(Cl)c2c1NC(C)(C)CC2C (racemic) [Compound 244, (±)-5-Chloro-6-(5-cyanothiophen-3-yl)-1,2,3,4-tetrahydro-2,2,4,8-tetramethylquinoline] | 6
2 | CC(=O)Oc1c(-c2cccc(C#N)c2)cc(C)c2c1C(C)CC(C)(C)N2 (racemic) [Compound 245, (±)-5-Acetoxy-6-(3-cyanophenyl)-1,2,3,4-tetrahydro-2,2,4,8-tetramethylquinoline] | 47
3 | Cc1cc(-c2cncnc2)c(Cl)c2c1NC(C)(C)CC2C (racemic) [Compound 256, (±)-5-Chloro-1,2,3,4-tetrahydro-2,2,4,8-tetramethyl-6-(pyrimidin-5-yl)quinoline] | 60
4 | CC1=CC(C)(C)Nc2ccc(-c3cccc(C(F)(F)F)c3)c(Cl)c21 [Compound 230, 5-Chloro-1,2-dihydro-2,2,4-trimethyl-6-[3-(trifluoromethyl)phenyl]quinoline] | 12
5 | CC1=CC(C)(C)Nc2c(C)cc(-c3cccc(C)c3)c(Cl)c21 [Compound 234, 5-Chloro-1,2-dihydro-2,2,4,8-tetramethyl-6-(3-methylphenyl)quinoline] | 85
6 | CCC(=O)c1cccc(-c2cc(C)c3c(c2Cl)C(C)=CC(C)(C)N3)c1 [Compound 238, 5-Chloro-1,2-dihydro-2,2,4,8-tetramethyl-6-[3-(propionyl)phenyl]quinoline] | 18
7 | CC1=CC(C)(C)Nc2ccc(-c3cccc(C(N)=O)c3)c(Cl)c21 [Compound 239, 6-(3-Carbamoylphenyl)-5-chloro-1,2-dihydro-2,2,4-trimethylquinoline] | 22
